The results in this text go back to ChEMBL document CHEMBL3994565 (Medchemcomm, 2016).

The nature of data set [1]: Antiviral activity against Influenza A virus (A/WSN/33(H1N1)) infected in MDCK cells assessed as inhibition of virus-induced cytopathic effect at 100 uM incubated for 40 hrs by CellTiter-Glo assay. It counts as functional, Influenza A virus (A/WSN/1933(H1N1)).
The nature of data set [2]: Cytotoxicity against MDCK cells assessed as cell viability at 100 uM after 40 hrs by CellTiter-Glo assay relative to control. It counts as cell-based, Canis lupus familiaris. The conditions noted are these: dog, read-out: Activity. A general note: ATP-based viability assays read luminescence as a measure of living cells.
Data set [3] in a line: Selectivity index, ratio of CC50 against uninfected MDCK cells to IC50 against Influenza A virus (A/WSN/33(H1N1)) infected MDCK cells. It counts as toxicity, cell-based. The conditions noted are these: dog; read-out: Ratio CC50/IC50.
Data set [4] can be described thus: Antiviral activity against Influenza A virus (A/WSN/33(H1N1)) infected in MDCK cells assessed as inhibition of virus-induced cytopathic effect incubated for 40 hrs by CellTiter-Glo assay. Type of data set: functional, cell-based, Influenza A virus (A/WSN/1933(H1N1)). For orientation: Protection from cytopathic effect is a common read-out in antiviral testing.
Data set [5] is described as follows: Cytotoxicity against MDCK cells assessed as decrease in cell viability after 40 hrs by CellTiter-Glo assay. It counts as cell-based, Canis lupus familiaris. Conditions: dog.

What is called inhibition is the drop in the measured response relative to a control, in per cent. One may read the IC50 as the point on the concentration scale where inhibition reaches its midpoint. The term CC50 denotes the concentration at which the toxic effect on the cells reaches its halfway point.

Each structure is given as a SMILES string.

On to `COC(=O)[C@@]1(OCCI)C[C@H](OC(C)=O)[C@@H](NC(C)=O)[C@H]([C@H](OC(C)=O)[C@@H](COC(C)=O)OC(C)=O)O1`, for which the inhibition at 100 µM in data set [1] was 6.3%. Besides, the viability at 40 h, 100 µM in data set [2] worked out at 103%.
As to `COC(=O)[C@@]1(OCCn2cc(CNC(=O)[C@]34CCC(C)(C)C[C@@H]3C3=CC[C@@H]5[C@@]6(C)CC[C@H](O)C(C)(C)[C@@H]6CC[C@@]5(C)[C@]3(C)CC4)nn2)C[C@H](OC(C)=O)[C@@H](NC(C)=O)[C@H]([C@H](OC(C)=O)[C@@H](COC(C)=O)OC(C)=O)O1`, the selectivity ratio in data set [3] was greater than 5.2. In data set [1], the inhibition at 100 µM came out at 57.8%. Also, the half-maximal inhibitory concentration (IC50) in data set [4] is 95.2 µM. Moreover, the viability at 40 h, 100 µM in data set [2] was found to be 97.1%. Besides, the CC50 at 40 h in data set [5] was greater than 500 µM.
For `COC(=O)[C@@]1(N=[N+]=[N-])C[C@H](OC(C)=O)[C@@H](NC(C)=O)[C@H]([C@H](OC(C)=O)[C@@H](COC(C)=O)OC(C)=O)O1`, the inhibition at 100 µM in data set [1] turned out to be 1%. Besides, the viability at 40 h, 100 µM in data set [2] was determined as 100%.
`COC(=O)[C@@]1(OCCOC(=O)[C@]23CC[C@@H](C)[C@H](C)[C@@H]2C2=CC[C@@H]4[C@@]5(C)CC[C@H](O)C(C)(C)[C@@H]5CC[C@@]4(C)[C@]2(C)CC3)C[C@H](OC(C)=O)[C@@H](NC(C)=O)[C@H]([C@H](OC(C)=O)[C@@H](COC(C)=O)OC(C)=O)O1`: the viability at 40 h, 100 µM in data set [2] was determined as 0.2%.
As for `COC(=O)[C@@]1(OCCOC(=O)[C@]23CCC(C)(C)C[C@@H]2C2=CC[C@@H]4[C@@]5(C)CC[C@H](O)C(C)(C)[C@@H]5CC[C@@]4(C)[C@]2(C)CC3)C[C@H](OC(C)=O)[C@@H](NC(C)=O)[C@H]([C@H](OC(C)=O)[C@@H](COC(C)=O)OC(C)=O)O1`, in data set [1], the inhibition at 100 µM turned out to be 18.7%. In addition, the viability at 40 h, 100 µM in data set [2] was 90.1%.
In the case of `C=C(C)[C@@H]1CC[C@]2(C(=O)NCc3cn([C@]4(C(=O)OC)C[C@H](OC(C)=O)[C@@H](NC(C)=O)[C@H]([C@H](OC(C)=O)[C@@H](COC(C)=O)OC(C)=O)O4)nn3)CC[C@]3(C)[C@H](CC[C@@H]4[C@@]5(C)CC[C@H](O)C(C)(C)[C@@H]5CC[C@]43C)[C@@H]12`, the inhibition at 100 µM in data set [1] was determined as 16%. Also, the viability at 40 h, 100 µM in data set [2] worked out at 100%.
On to `COC(=O)[C@@]1(n2cc(CNC(=O)[C@]34CC[C@@H](C)[C@H](C)[C@@H]3C3=CC[C@@H]5[C@@]6(C)CC[C@H](O)C(C)(C)[C@@H]6CC[C@@]5(C)[C@]3(C)CC4)nn2)C[C@H](O)[C@@H](NC(C)=O)[C@H]([C@H](O)[C@H](O)CO)O1`, for which the viability at 40 h, 100 µM in data set [2] was 12.2%.
`C=C(C)[C@@H]1CC[C@]2(C(=O)NCc3cn(CCO[C@]4(C(=O)OC)C[C@H](O)[C@@H](NC(C)=O)[C@H]([C@H](O)[C@H](O)CO)O4)nn3)CC[C@]3(C)[C@H](CC[C@@H]4[C@@]5(C)CC[C@H](O)C(C)(C)[C@@H]5CC[C@]43C)[C@@H]12`: the inhibition at 100 µM in data set [1] was 12.2%. The viability at 40 h, 100 µM in data set [2] was determined as 104%.
In the same order, the values of `COC(=O)[C@@]1(OCCn2cc(CNC(=O)[C@]34CCC(C)(C)C[C@@H]3C3=CC[C@@H]5[C@@]6(C)CC[C@H](O)C(C)(C)[C@@H]6CC[C@@]5(C)[C@]3(C)C[C@H]4O)nn2)C[C@H](O)[C@@H](NC(C)=O)[C@H]([C@H](O)[C@H](O)CO)O1` are 2.2% and 107%.
In the same order, the values of `COC(=O)[C@@]1(OCCN=[N+]=[N-])C[C@H](OC(C)=O)[C@@H](NC(C)=O)[C@H]([C@H](OC(C)=O)[C@@H](COC(C)=O)OC(C)=O)O1` are 4.3% and 100%.
As for `COC(=O)[C@@]1(OCCOC(=O)[C@]23CCC(C)(C)C[C@@H]2C2=CC[C@@H]4[C@@]5(C)CC[C@H](O)C(C)(C)[C@@H]5CC[C@@]4(C)[C@]2(C)CC3)C[C@H](O)[C@@H](NC(C)=O)[C@H]([C@H](O)[C@H](O)CO)O1`, the inhibition at 100 µM in data set [1] worked out at 16.4%. Moreover, in data set [2], the viability at 40 h, 100 µM came out at 82.4%.
With `COC(=O)[C@@]1(n2cc(CNC(=O)[C@]34CCC(C)(C)C[C@@H]3C3=CC[C@@H]5[C@@]6(C)CC[C@H](O)C(C)(C)[C@@H]6CC[C@@]5(C)[C@]3(C)C[C@H]4O)nn2)C[C@H](OC(C)=O)[C@@H](NC(C)=O)[C@H]([C@H](OC(C)=O)[C@@H](COC(C)=O)OC(C)=O)O1`, the inhibition at 100 µM in data set [1] was -5.2%. Also, the viability at 40 h, 100 µM in data set [2] was 103%.
For `C=C(C)[C@@H]1CC[C@]2(C(=O)NCc3cn([C@]4(C(=O)OC)C[C@H](O)[C@@H](NC(C)=O)[C@H]([C@H](O)[C@H](O)CO)O4)nn3)CC[C@]3(C)[C@H](CC[C@@H]4[C@@]5(C)CC[C@H](O)C(C)(C)[C@@H]5CC[C@]43C)[C@@H]12`, in data set [1], the inhibition at 100 µM is -8.1%. In addition, the viability at 40 h, 100 µM in data set [2] was 104%.
Consider `CC1(C)CC[C@]2(C(=O)O)[C@H](O)C[C@]3(C)C(=CC[C@@H]4[C@@]5(C)CC[C@H](O)C(C)(C)[C@@H]5CC[C@]43C)[C@@H]2C1`, for which, in data set [2], the viability at 40 h, 100 µM amounted to 40.1%.
As for `COC(=O)[C@@]1(OCCn2cc(CNC(=O)[C@]34CCC(C)(C)C[C@@H]3C3=CC[C@@H]5[C@@]6(C)CC[C@H](O)C(C)(C)[C@@H]6CC[C@@]5(C)[C@]3(C)C[C@H]4O)nn2)C[C@H](OC(C)=O)[C@@H](NC(C)=O)[C@H]([C@H](OC(C)=O)[C@@H](COC(C)=O)OC(C)=O)O1`, in data set [1], the inhibition at 100 µM was found to be 15.3%. The viability at 40 h, 100 µM in data set [2] was determined as 105%.
Regarding `COC(=O)[C@@]1(n2cc(CNC(=O)[C@]34CC[C@@H](C)[C@H](C)[C@@H]3C3=CC[C@@H]5[C@@]6(C)CC[C@H](O)C(C)(C)[C@@H]6CC[C@@]5(C)[C@]3(C)CC4)nn2)C[C@H](OC(C)=O)[C@@H](NC(C)=O)[C@H]([C@H](OC(C)=O)[C@@H](COC(C)=O)OC(C)=O)O1`, the viability at 40 h, 100 µM in data set [2] amounted to 2.5%.
As for `COC(=O)[C@@]1(OCCOC(=O)[C@]23CC[C@@H](C)[C@H](C)[C@@H]2C2=CC[C@@H]4[C@@]5(C)CC[C@H](O)C(C)(C)[C@@H]5CC[C@@]4(C)[C@]2(C)CC3)C[C@H](O)[C@@H](NC(C)=O)[C@H]([C@H](O)[C@H](O)CO)O1`, the viability at 40 h, 100 µM in data set [2] came to 0.1%.
For `COC(=O)[C@@]1(n2cc(CNC(=O)[C@]34CCC(C)(C)C[C@@H]3C3=CC[C@@H]5[C@@]6(C)CC[C@H](O)C(C)(C)[C@@H]6CC[C@@]5(C)[C@]3(C)CC4)nn2)C[C@H](O)[C@@H](NC(C)=O)[C@H]([C@H](O)[C@H](O)CO)O1`, the inhibition at 100 µM in data set [1] was -4.6%. In addition, in data set [2], the viability at 40 h, 100 µM was 106%.
In the case of `COC(=O)[C@@]1(OCCn2cc(CNC(=O)[C@]34CC[C@@H](C)[C@H](C)[C@@H]3C3=CC[C@@H]5[C@@]6(C)CC[C@H](O)C(C)(C)[C@@H]6CC[C@@]5(C)[C@]3(C)CC4)nn2)C[C@H](O)[C@@H](NC(C)=O)[C@H]([C@H](O)[C@H](O)CO)O1`, the viability at 40 h, 100 µM in data set [2] was found to be 20.1%.
For the compound `COC(=O)[C@@]1(OCCOC(=O)[C@]23CCC(C)(C)C[C@@H]2C2=CC[C@@H]4[C@@]5(C)CC[C@H](O)C(C)(C)[C@@H]5CC[C@@]4(C)[C@]2(C)C[C@H]3O)C[C@H](OC(C)=O)[C@@H](NC(C)=O)[C@H]([C@H](OC(C)=O)[C@@H](COC(C)=O)OC(C)=O)O1`, in data set [1], the inhibition at 100 µM was found to be 31.2%. In addition, in data set [2], the viability at 40 h, 100 µM was determined as 84.5%.
The matching figures for `COC(=O)[C@@]1(OCCOC(=O)[C@]23CCC(C)(C)C[C@@H]2C2=CC[C@@H]4[C@@]5(C)CC[C@H](O)C(C)(C)[C@@H]5CC[C@@]4(C)[C@]2(C)C[C@H]3O)C[C@H](O)[C@@H](NC(C)=O)[C@H]([C@H](O)[C@H](O)CO)O1`: -11.8% and 99.8%.
As for `COC(=O)[C@@]1(OCCn2cc(CNC(=O)[C@]34CCC(C)(C)C[C@@H]3C3=CC[C@@H]5[C@@]6(C)CC[C@H](O)C(C)(C)[C@@H]6CC[C@@]5(C)[C@]3(C)CC4)nn2)C[C@H](O)[C@@H](NC(C)=O)[C@H]([C@H](O)[C@H](O)CO)O1`, the inhibition at 100 µM in data set [1] worked out at 6.7%. For the same compound, in data set [2], the viability at 40 h, 100 µM came out at 107%.
Take `C[C@H]1[C@H](C)CC[C@]2(C(=O)O)CC[C@]3(C)C(=CC[C@@H]4[C@@]5(C)CC[C@H](O)C(C)(C)[C@@H]5CC[C@]43C)[C@H]12` [URSOLIC ACID]: the viability at 40 h, 100 µM in data set [2] worked out at 0.4%.
Consider `COC(=O)[C@@]1(OCCn2cc(CNC(=O)[C@]34CC[C@@H](C)[C@H](C)[C@@H]3C3=CC[C@@H]5[C@@]6(C)CC[C@H](O)C(C)(C)[C@@H]6CC[C@@]5(C)[C@]3(C)CC4)nn2)C[C@H](OC(C)=O)[C@@H](NC(C)=O)[C@H]([C@H](OC(C)=O)[C@@H](COC(C)=O)OC(C)=O)O1`, for which the viability at 40 h, 100 µM in data set [2] was 3.3%.
With `COC(=O)[C@@]1(n2cc(CNC(=O)[C@]34CCC(C)(C)C[C@@H]3C3=CC[C@@H]5[C@@]6(C)CC[C@H](O)C(C)(C)[C@@H]6CC[C@@]5(C)[C@]3(C)C[C@H]4O)nn2)C[C@H](O)[C@@H](NC(C)=O)[C@H]([C@H](O)[C@H](O)CO)O1`, in data set [1], the inhibition at 100 µM was -3.6%. Moreover, the viability at 40 h, 100 µM in data set [2] worked out at 104%.
On to `COC(=O)[C@@]1(n2cc(CNC(=O)[C@]34CCC(C)(C)C[C@@H]3C3=CC[C@@H]5[C@@]6(C)CC[C@H](O)C(C)(C)[C@@H]6CC[C@@]5(C)[C@]3(C)CC4)nn2)C[C@H](OC(C)=O)[C@@H](NC(C)=O)[C@H]([C@H](OC(C)=O)[C@@H](COC(C)=O)OC(C)=O)O1`, for which the inhibition at 100 µM in data set [1] was found to be 1.3%. Besides, the viability at 40 h, 100 µM in data set [2] was 104%.
Take `CC1(C)CC[C@]2(C(=O)O)CC[C@]3(C)C(=CC[C@@H]4[C@@]5(C)CC[C@H](O)C(C)(C)[C@@H]5CC[C@]43C)[C@@H]2C1` [OLEANOLIC_ACID]: the viability at 40 h, 100 µM in data set [2] was 60.9%.
